The values that follow come from US20180028543A1, “HYPOLIPIDEMIC COMPOSITION AND USE THEREOF” (priority 2014, published 2018).

Experiment [1] deals with hyperlipidemia rats. Kind of experiment: Hypolipidemic animal experiment: blood lipid levels in high-fat feed rats. In kind it is in vivo, SD rats. The settings on record: serum, positive drug 1.5 mg/kg intragastric, 4 weeks, X ± S, n = 10. On the procedure: 3. […] From the day of experiment, the blank control group and the model control group were intragastrically administered with normal saline (volume: 10 ml/kg), the administration group was intragastrically administered with corresponding drugs once a day, the body weight was weighed once a week, and the dosage was adjusted according to the body weight. The blank control group was fed with the normal feed, the other groups was fed with high-fat feed. During the experiment, free feeding, free drinking, continuous molding and drug administration for prevention were carried out for 4 weeks.
4. Observation indexes: after the last administration, the rats fasted for 12 h without fasting water. The rats were anesthetized with 3% pentobarbital sodium, blood was collected from the abdominal aorta, serum was centrifugally separated, and the serum total cholesterol (TC), triglyceride (TG), high-density lipoprotein cholesterol (HDL-C), low-density lipoprotein cholesterol (LDL-C), alanine aminotransferase (ALT) and aspartate aminotransferase (AST) values were measured.

In experiment [2] the test system is hyperlipidemia rats. Kind of experiment: Effect on liver function (serum ALT, AST) of high-fat feed rats. The experiment is classed as in vivo, SD rats. The settings on record: positive drug 1.5 mg/Kg-d, 4 weeks, X ± S, n = 10. An excerpt:
1. Experimental materials: 150 healthy SD male and female rats in clean grade, with body weight of (150.2±8.9) g.
2. Feed: general feed, high-fat feed formula: 72.7% of basic feed, 2% of cholesterol, 5% of egg yolk powder, 10% of lard, 0.2% of propylthiouracil, 10% of sucrose and 0.1% of sodium cholate.
3. Grouping and administration of animals: the purchased experimental rats were adaptively fed for 1 week in a lab, original numbers were assigned according to the weighing order, and the rats were randomly divided into a blank control group, a model control group, a pharmaceutical composition (respectively prepared as in Examples 3, 6, 8 and 10, and added with 50 ml of water per 10 g to be dissolved to obtain a solution) low-dose group (5 ml/kg·d), a middle-dose group (10 ml/kg-d), a high-dose group (15 ml/kg·d), a positive drug (simvastatin) control group (1.5 mg/kg, volume: 10 ml/kg) by looking up a random number table, and there were 10 rats in each group. […]
4. […] The rats were anesthetized with 3% pentobarbital sodium, blood was collected from the abdominal aorta, serum was centrifugally separated, and the serum total cholesterol (TC), triglyceride (TG), high-density lipoprotein cholesterol (HDL-C), low-density lipoprotein cholesterol (LDL-C), alanine aminotransferase (ALT) and aspartate aminotransferase (AST) values were measured. […]

For the compound `CCC(C)(C)C(=O)O[C@H]1C[C@@H](C)C=C2C=C[C@H](C)[C@H](CC[C@@H]3C[C@@H](O)CC(=O)O3)[C@H]21` [Positive drug, simvastatin], in the experiment on hyperlipidemia rats [1], the HDL-C is listed as 1.23 ± 0.17 mmol/L, the LDL-C is given as 1.68 ± 1.91 mmol/L, the TC turned out to be 8.42 ± 4.79 mmol/L and the TG was 0.49 ± 0.18 mmol/L. In the experiment with hyperlipidemia rats [2], this compound showed an ALT of 45.85 ± 5.21 U/L and an AST of 22.32 ± 7.56 U/L.
